The record followed here is patent US4956463A, “Pyrimidone compound and pharmaceutically acceptable salts thereof” (Ikeda Mohando Company, Ltd., priority 1987, dated 1990).

The subject of one assay is Ethanol-Induced Ulcer. Put plainly: Inhibitory Effect on Ethanol-Induced Ulcer. The format is in vivo, male Wister rats. As to conditions: for inhibition in vivo at 30 mg/kg: Rattus norvegicus, po, 1 h, read-out: I.R. of Ethanol-Induced Ulcer. On the procedure: (B) Inhibitory Effect of the Compounds of the Present Invention on Ethanol-Induced Ulcer
This test was performed in the manner similar to the method of Robert A. (Gastroenterology, 1975, Vol. 69, pp. 1045-1047). 30 mg/kg of the compound of this invention was orally administered to male Wister rats having a body weight of about 160 g after 24 hours fasting and after additional 30 minutes, 1 ml/animal of 100% ethanol was orally administered One hour after, the stomach was dissected out and was fixed with formalin, Then, the length of the hemorrhagic ulcers generated at the front portion of the stomach was measured by means of a microscope and these were defined as the coefficient of ulcer (U.C.). [formula]
The results obtained are listed in Table II in which the values found are expressed in the average of 5 measurements.

In assay [1] the test system is Gastric Acid Secretion Accelerated by Histamine in Pylorus-ligated Rats. As to the kind of experiment: Inhibitory Effect on Gastric Acid Secretion by Histamine in Pylorus-ligated Rats. The class given is in vivo, male Wister rat. Conditions: dose 2 mg/kg s.c.; histamine 3 mg/kg s.c. 30 min later; average of 5 measurements; ** P < 0.01 vs control group (all values marked **). On the procedure:
A male Wister rat having a body weight of about 160 g and which had not fed for 24 hours was anesthetized by an intraperitonea dose of 1.2 g/kg of urethane. After ligating of pylorus and esophagus, gaster anterior was incised and fitted with a double polyethylene wall cannula. The wall of the stomach was rinsed with saline (5 ml each) at 30 minutes intervals, and the amount of gastric acid present in the rinsing solution were determined by titration technique.
The basal amount of secreted gastric acid was initially measured three times, then 2 mg/kg of each of compounds of the invention was administered subcutaneously and 3 mg/kg of histamine was subcutaneously administered after the lapse of an additional 30 minutes.
The quantity of gastric acid secreted after the operation was measured continuously for 3 hours. Within that measurement interval, three time points at which the increase in acid secretion reached a maximum level were selected, and the average quantity of gastric acid secreted at those time points was taken as the increase in acid secretion, which was compared with the increase in acid secretion of the control group to calculate the percent inhibition for secretion of gastric acid. [formula]

[2] abbreviates: 30 mg/kg p.o., 100% ethanol 1 ml/animal p.o. 30 min later, average of 5 measurements, ** P < 0.01 vs control group (Ex. 18 and Cimetidine unmarked).

Read-outs that look alike come from different tables or passages of the source.

Take `CN/C(=N/CCSCc1nc[nH]c1C)NC#N` [Cimetidine, reference compound]: the inhibition in vivo at 30 mg/kg with Ethanol-Induced Ulcer was -22.4%. Besides, the “inhibitory effect for damages with ethanol” value in the assay with Ethanol-Induced Ulcer (in words, as shown in Table II) is recorded as “not observed”. In addition, the “Gastric Acid Secretion in Rats, Rate of inhibition” value in assay [1] turned out to be 70%.
With `Cc1[nH]c(NC/C=C\COc2cc(CN3CCCCC3)ccn2)nc(=O)c1C` [Ex. 1, 5,6-Dimethyl-2-[4-<4-(1-piperidinomethyl)-pyridyl-2-oxy>-cis-2-butenylamino]-4-(1H)-pyrimidone], the inhibition in vivo at 30 mg/kg with Ethanol-Induced Ulcer (setting [2]) came out at 65%. In assay [1], the “Gastric Acid Secretion in Rats, Rate of inhibition” value is 59%.
The matching figures for `Cc1[nH]c(NC/C=C\COc2cccc(CN3CCCCC3)c2)nc(=O)c1C` [Ex. 3, 5,6-Dimethyl-2-[4-<3-(1-piperidinomethyl)-phenoxy>-cis-2-butenylamino]-4-(1H)-pyrimidone]: 80% and 70%.
On to `CCCCCCCc1c(C)[nH]c(NC/C=C\COc2cccc(CN3CCCCC3)c2)nc1=O` [Ex. 7], for which the inhibition in vivo at 30 mg/kg in the assay on Ethanol-Induced Ulcer (setting [2]) is 61%.
As to `CCCCCCCCCCCCc1c(C)[nH]c(NC/C=C\COc2cccc(CN3CCCCC3)c2)nc1=O` [Ex. 10, 5-Dodecyl-6-methyl-2-[4-<3-(1-piperidinomethyl)-phenoxy>-cis-2-butenylamino]-4-(1H)-pyrimidone], the inhibition in vivo at 30 mg/kg in the assay with Ethanol-Induced Ulcer (setting [2]) came to 73%. In assay [1], the “Gastric Acid Secretion in Rats, Rate of inhibition” value worked out at 36%.
The matching figures for `Cc1[nH]c(NC/C=C\COc2cc(CN3CCCCC3)ccn2)nc(=O)c1CCc1ccccc1` [Ex. 11, 5-Phenethyl-6-methyl-2-[4-<4-(1-piperidinomethyl)-pyridyl-2-oxy>-cis-2-butenylamino]-4-(1H)-pyrimidone]: 79% and 47%.
Regarding `Cc1[nH]c(NC/C=C\COc2cc(CN3CCCCC3)ccn2)nc(=O)c1Cc1ccccc1` [Ex. 13], the inhibition in vivo at 30 mg/kg in the assay with Ethanol-Induced Ulcer (setting [2]) worked out at 56%.
Take `Cc1[nH]c(NC/C=C\COc2cccc(CN3CCCCC3)c2)nc(=O)c1Cc1ccccc1` [Ex. 14, 5-Benzyl-6-methyl-2-[4-<3-(I-piperidinomethyl)-phenoxy>-cis-2-butenylamino]-4-(1H)-pyrimidone]: the inhibition in vivo at 30 mg/kg in the assay with Ethanol-Induced Ulcer (setting [2]) came to 87%.
For the molecule `Cc1[nH]c(NC/C=C\COc2cc(CN3CCCCC3)ccn2)nc(=O)c1Cc1ccc2c(c1)OCO2` [Ex. 16, 5-(3,4-methylenedioxy)-benzyl-6-methyl-2-[4-<4-(1-piperidinomethyl)-pyridyl-2-oxy>-cis-2-butenylamino]-4-(1H)-pyrimidone], the inhibition in vivo at 30 mg/kg in the assay with Ethanol-Induced Ulcer (setting [2]) worked out at 58%.
On to `COc1ccc(Cc2c(C)[nH]c(NC/C=C\COc3cccc(CN4CCCCC4)c3)nc2=O)cc1` [Ex. 17, 5-(p-methoxybenzyl)-6-methyl-2-[4-<3-(1-piperidino-methyl)-phenoxy>-cis-2-butenylamino]-4-(1H)-pyrimidone], for which, in the assay on Ethanol-Induced Ulcer (setting [2]), the inhibition in vivo at 30 mg/kg was 78%.
On the same count and under the same terms, in the case of `CCCc1[nH]c(NC/C=C\COc2cccc(CN3CCCCC3)c2)nc(=O)c1Cc1ccc2c(c1)OCO2` [Ex. 18] it was 45%.
